Key:
[1] = system: PC3 cells; assay: NAMPT Cell Proliferation Assay; format: cell-based; details: Homo sapiens, PC-3, 120 h, 5 days incubation, cell viability by Cell Titer Glo
Method in brief: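 IC50 values derive from sigmoidal dose-response fits of percent inhibition of PC3 viability, measured by luminescence after 5 days of compound treatment. Cells (500/well, RPMI containing 10% heat-inactivated FBS) are allowed to attach overnight, and compounds are tested at 10-fold dilutions between 10 μM and 1×10^−5 μM.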

[2] = biological target: NAMPT (human, recombinant, C-terminally His-tagged) (Homo sapiens, UniProt P43490); assay: Time-Resolved Fluorescence Resonance Energy Transfer (TR-FRET) Binding Assay of NAMPT; details: without substrates; 6.8 nM NAMPT, 200 nM probe, 3 hours equilibration
Chain of NAMPT (human, recombinant, C-terminally His-tagged) (P43490 whole entry): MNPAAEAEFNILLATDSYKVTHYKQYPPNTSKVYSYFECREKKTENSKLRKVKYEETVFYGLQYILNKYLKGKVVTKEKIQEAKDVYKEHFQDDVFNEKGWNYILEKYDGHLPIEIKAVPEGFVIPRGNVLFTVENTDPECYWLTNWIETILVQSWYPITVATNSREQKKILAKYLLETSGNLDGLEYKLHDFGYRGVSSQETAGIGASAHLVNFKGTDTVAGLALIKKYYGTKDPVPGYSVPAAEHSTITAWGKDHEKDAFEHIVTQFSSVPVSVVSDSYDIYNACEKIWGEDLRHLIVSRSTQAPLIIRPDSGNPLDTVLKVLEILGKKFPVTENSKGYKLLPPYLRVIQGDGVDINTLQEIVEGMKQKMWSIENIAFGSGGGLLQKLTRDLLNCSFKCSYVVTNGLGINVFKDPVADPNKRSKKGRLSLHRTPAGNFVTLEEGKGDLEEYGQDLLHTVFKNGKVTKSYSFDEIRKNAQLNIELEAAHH
Method in brief: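 11-pt half-log compound series; final 6.8 nM NAMPT, 200 nM OG488 nicotinamide-competitive probe, 1 nM Tb-anti-His Ab, 2% DMSO, HEPES pH 7.5/NaCl/MgCl2/DTT/glycerol buffer. 3 h RT equilibration. Em520/Em495 ratio (Ex 337 nm), control-normalized, 4-parameter fit → IC50.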

[3] = biological target: NAMPT (Homo sapiens, UniProt P43490); assay: TR-FRET Binding Assay of NAMPT with PRPP; details: with 200 μM PRPP and 2.5 mM ATP; 2 nM NAMPT, 2 nM probe, 16 hours equilibration
Chain of NAMPT (P43490 whole entry): as above
Method in brief: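 TR-FRET probe-displacement binding with 2 nM NAMPT, 2 nM probe and 1 nM Tb-anti-His antibody, run in the presence of 200 μM PRPP and 2.5 mM ATP at 2% DMSO. Equilibrated 16 hours before reading so test compounds could undergo enzymatic modification.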

SMILES | IC50 [1] [nM] | IC50 [2] [nM] | IC50 [3] [nM]
O=C(NCc1ccn2ccnc2c1)c1ccc(C2CCN(C(=O)CCC(F)(F)F)CC2)s1 [Example 574, N-(imidazo[1,2-a]pyridin-7-ylmethyl)-5-[1-(4,4,4-trifluorobutanoyl)piperidin-4-yl]thiophene-2-carboxamide] | 5.2 | 97.5 | 0.505
CC(C)C(=O)N1CCC(c2ccc(C(=O)NCc3ccn4c(Cl)cnc4c3)cc2)CC1 [Example 575, N-[(3-chloroimidazo[1,2-a]pyridin-7-yl)methyl]-4-[1-(2-methylpropanoyl)piperidin-4-yl]benzamide] | > 10000 | 3250 | 10.8
CC1(Cn2cc(-c3ccc(C(=O)NCc4ccn5ccnc5c4)s3)cn2)CCOCC1 [Example 576, N-(imidazo[1,2-a]pyridin-7-ylmethyl)-5-{1-[(4-methyltetrahydro-2H-pyran-4-yl)methyl]-1H-pyrazol-4-yl}thiophene-2-carboxamide] | 0.569 | 16 | 0.783
CC(C)(C#N)Cn1cc(-c2ccc(C(=O)NCc3ccn4ccnc4c3)s2)cn1 [Example 577, 5-[1-(2-cyano-2-methylpropyl)-1H-pyrazol-4-yl]-N-(imidazo[1,2-a]pyridin-7-ylmethyl)thiophene-2-carboxamide] | 2.15 | 18.9 | 0.361
CC(C)Cn1cc(-c2sc(C(=O)NCc3ccn4ccnc4c3)cc2Cl)cn1 [Example 578, 4-chloro-N-(imidazo[1,2-a]pyridin-7-ylmethyl)-5-[1-(2-methylpropyl)-1H-pyrazol-4-yl]thiophene-2-carboxamide] | 4600 | 682 | 0.775
O=C(NCc1ccn2ccnc2c1)c1cc(Cl)c(-c2cnn(C[C@H]3CCOC3)c2)s1 [Example 579, 4-chloro-N-(imidazo[1,2-a]pyridin-7-ylmethyl)-5-{1-[(3R)-tetrahydrofuran-3-ylmethyl]-1H-pyrazol-4-yl}thiophene-2-carboxamide] | 758 | 488 | 0.634
CC1CC1C(=O)N1CCC(c2ccc(C(=O)NCc3ccn4ccnc4c3)cc2)C1 (stereo not drawn) [Example 580, N-(imidazo[1,2-a]pyridin-7-ylmethyl)-4-{1-[(2-methylcyclopropyl)carbonyl]pyrrolidin-3-yl}benzamide] | 212 | 1470 | 0.798
O=C(NCc1ccn2ccnc2c1)c1ccc(C2CCN(C(=O)CC3CCCC3)C2)cc1 (stereo not drawn) [Example 581, 4-[1-(cyclopentylacetyl)pyrrolidin-3-yl]-N-(imidazo[1,2-a]pyridin-7-ylmethyl)benzamide] | 81.2 | 945 | 1.09
CCC(C)CC(=O)N1CCC(c2ccc(C(=O)NCc3ccn4ccnc4c3)cc2)C1 (stereo not drawn) [Example 582, N-(imidazo[1,2-a]pyridin-7-ylmethyl)-4-[1-(3-methylpentanoyl)pyrrolidin-3-yl]benzamide] | 33.2 | 711 | 0.911
O=C(NCc1ccn2ccnc2c1)c1ccc(C2CCN(C(=O)C3CCCC3)C2)cc1 (stereo not drawn) [Example 583, 4-[1-(cyclopentylcarbonyl)pyrrolidin-3-yl]-N-(imidazo[1,2-a]pyridin-7-ylmethyl)benzamide] | 189 | 1120 | 0.799
CC1(C(=O)N2CCC(c3ccc(C(=O)NCc4ccn5ccnc5c4)cc3)C2)CC1 (stereo not drawn) [Example 584, N-(imidazo[1,2-a]pyridin-7-ylmethyl)-4-{1-[(1-methylcyclopropyl)carbonyl]pyrrolidin-3-yl}benzamide] | 58.7 | 811 | 0.756
CC(C)(C)C(=O)N1CCC(c2ccc(C(=O)NCc3ccn4ccnc4c3)cc2)C1 (stereo not drawn) [Example 585, 4-[1-(2,2-dimethylpropanoyl)pyrrolidin-3-yl]-N-(imidazo[1,2-a]pyridin-7-ylmethyl)benzamide] | 34.6 | 641 | 0.648
O=C(NCc1ccn2ccnc2c1)c1ccc(C2CCN(C(=O)c3cncs3)C2)cc1 (stereo not drawn) [Example 586, N-(imidazo[1,2-a]pyridin-7-ylmethyl)-4-[1-(1,3-thiazol-5-ylcarbonyl)pyrrolidin-3-yl]benzamide] | 301 | 842 | 1.09
COc1ccccc1C(=O)N1CCC(c2ccc(C(=O)NCc3ccn4ccnc4c3)cc2)C1 (stereo not drawn) [Example 587, N-(imidazo[1,2-a]pyridin-7-ylmethyl)-4-[1-(2-methoxybenzoyl)pyrrolidin-3-yl]benzamide] | 7.54 | 236 | 0.917
O=C(NCc1ccn2ccnc2c1)c1ccc(C2CCN(C(=O)c3cscn3)C2)cc1 (stereo not drawn) [Example 588, N-(imidazo[1,2-a]pyridin-7-ylmethyl)-4-[1-(1,3-thiazol-4-ylcarbonyl)pyrrolidin-3-yl]benzamide] | 181 | 684 | 0.623
O=C(NCc1ccn2ccnc2c1)c1ccc(C2CCN(C(=O)c3ccccc3F)C2)cc1 (stereo not drawn) [Example 589, 4-[1-(2-fluorobenzoyl)pyrrolidin-3-yl]-N-(imidazo[1,2-a]pyridin-7-ylmethyl)benzamide] | 1.31 | 16.1 | 0.887
O=C(NCc1ccn2ccnc2c1)c1ccc(C2CCN(C(=O)c3ccco3)C2)cc1 (stereo not drawn) [Example 590, 4-[1-(furan-2-ylcarbonyl)pyrrolidin-3-yl]-N-(imidazo[1,2-a]pyridin-7-ylmethyl)benzamide] | 189 | 666 | 0.734
O=C(NCc1ccn2ccnc2c1)c1ccc(C2CCN(C(=O)c3cccc(F)c3)C2)cc1 (stereo not drawn) [Example 591, 4-[1-(3-fluorobenzoyl)pyrrolidin-3-yl]-N-(imidazo[1,2-a]pyridin-7-ylmethyl)benzamide] | 19.3 | 138 | 0.761
O=C(NCc1ccn2ccnc2c1)c1ccc(C2CCN(C(=O)c3ccc(F)cc3F)C2)cc1 (stereo not drawn) [Example 592, 4-[1-(2,4-difluorobenzoyl)pyrrolidin-3-yl]-N-(imidazo[1,2-a]pyridin-7-ylmethyl)benzamide] | 3.75 | 38.8 | 0.603
Cn1ccc(C(=O)N2CCC(c3ccc(C(=O)NCc4ccn5ccnc5c4)cc3)C2)n1 (stereo not drawn) [Example 593, N-(imidazo[1,2-a]pyridin-7-ylmethyl)-4-{1-[(1-methyl-1H-pyrazol-3-yl)carbonyl]pyrrolidin-3-yl}benzamide] | 677 | 767 | 0.544
O=C(NCc1ccn2ccnc2c1)c1ccc(C2CCN(C(=O)c3ccccc3Cl)C2)cc1 (stereo not drawn) [Example 594, 4-[1-(2-chlorobenzoyl)pyrrolidin-3-yl]-N-(imidazo[1,2-a]pyridin-7-ylmethyl)benzamide] | 1.11 | 22.7 | 0.682
Cc1ccccc1C(=O)N1CCC(c2ccc(C(=O)NCc3ccn4ccnc4c3)cc2)C1 (stereo not drawn) [Example 595, N-(imidazo[1,2-a]pyridin-7-ylmethyl)-4-[1-(2-methylbenzoyl)pyrrolidin-3-yl]benzamide] | 6.93 | 133 | 0.746
O=C(NCc1ccn2ccnc2c1)c1ccc(C2CCN(C(=O)c3ccc(Cl)cc3)C2)cc1 (stereo not drawn) [Example 596, 4-[1-(4-chlorobenzoyl)pyrrolidin-3-yl]-N-(imidazo[1,2-a]pyridin-7-ylmethyl)benzamide] | 257 | 691 | 0.909
O=C(NCc1ccn2ccnc2c1)c1ccc(C2CCN(C(=O)c3cccc(Cl)c3)C2)cc1 (stereo not drawn) [Example 597, 4-[1-(3-chlorobenzoyl)pyrrolidin-3-yl]-N-(imidazo[1,2-a]pyridin-7-ylmethyl)benzamide] | 33.5 | 232 | 0.862
CCC(C)(C)C(=O)N1CCC(c2ccc(C(=O)NCc3ccn4ccnc4c3)cc2)C1 (stereo not drawn) [Example 598, 4-[1-(2,2-dimethylbutanoyl)pyrrolidin-3-yl]-N-(imidazo[1,2-a]pyridin-7-ylmethyl)benzamide] | 16.6 | 457 | 0.804
O=C(NCc1ccn2ccnc2c1)c1ccc(C2CCN(C(=O)c3cc(F)cc(F)c3)C2)cc1 (stereo not drawn) [Example 599, 4-[1-(3,5-difluorobenzoyl)pyrrolidin-3-yl]-N-(imidazo[1,2-a]pyridin-7-ylmethyl)benzamide] | 52.3 | 527 | 0.786
Cc1ccc(C(=O)N2CCC(c3ccc(C(=O)NCc4ccn5ccnc5c4)cc3)C2)cc1 (stereo not drawn) [Example 600, N-(imidazo[1,2-a]pyridin-7-ylmethyl)-4-[1-(4-methylbenzoyl)pyrrolidin-3-yl]benzamide] | 110 | 510 | 0.169
CC(C)CC(=O)N1CCC(c2ccc(C(=O)NCc3ccn4ccnc4c3)cc2)C1 (stereo not drawn) [Example 601, N-(imidazo[1,2-a]pyridin-7-ylmethyl)-4-[1-(3-methylbutanoyl)pyrrolidin-3-yl]benzamide] | 56.7 | 712 | 0.682
CC(C)(C)CC(=O)N1CCC(c2ccc(C(=O)NCc3ccn4ccnc4c3)cc2)C1 (stereo not drawn) [Example 602, 4-[1-(3,3-dimethylbutanoyl)pyrrolidin-3-yl]-N-(imidazo[1,2-a]pyridin-7-ylmethyl)benzamide] | 48.6 | 786 | 0.887

Source: patent US9187472B2 (AbbVie Inc., priority 2012, dated 2015)
